{"source": "the SangsterLogP compilation", "data": [{"values": [{"compound": "CC(C)CC(C)(C)C", "logP": 5.83}, {"compound": "Brc1ccc(Br)s1", "logP": 4.15}, {"compound": "c1ccc(Cc2ccccc2)cc1", "logP": 4.22}, {"compound": "Clc1cc(Cl)c(-c2c(Cl)cc(Cl)cc2Cl)c(Cl)c1", "logP": 6.39}, {"compound": "CCCCCCCCCCCCCCCCCCCl", "logP": 8.7}, {"compound": "CCCCC(CC)CCl", "note": "(centres undefined)", "logP": 5.2}, {"compound": "CCCCCCC(=O)OC", "logP": 3.1}, {"compound": "CCCCCCCCCC", "logP": 6.69}, {"compound": "C=C(C)CC(C)(C)C", "logP": 5.44}, {"compound": "CCCCCCCCCCCCCCCCC", "logP": 8.92}, {"compound": "c1ccc(C2CCCCC2)cc1", "logP": 5.54}, {"compound": "C=CCCCCCCC=C", "logP": 5.7}, {"compound": "BrCC(Br)C(Br)CBr", "note": "(centres undefined)", "logP": 3.22}, {"compound": "c1ccc2c(c1)ccc1cc3c(ccc4ccccc43)cc12", "logP": 6.88}]}]}
